# In US20060063810A1, “Combination treatment for impaired motor function in parkinson's disease” (priority 2003, published 2006):
# What was measured:
# [1] = test system: single Parkinson's patient; details: citalopram added to the anti-Parkinson's drug regime of a single patient; cited from earlier work
# [2] = test system: Parkinson Disease patients suffering from severe bradykinesia and motor fluctuations (dyskinesias) induced by L-Dopa therapy; assay: Double-blind, randomized, placebo-controlled clinical study of AMN lead-in followed by add-on CIT (Example 9, Method B); format: in vivo, human; details: patients 1, 2 and 4; first four visits; three weeks of treatment with amantadine only
# Protocol: The study is conducted in a double-blind, randomized, placebo-controlled, parallel-group design, with 2 treatment phases: 3 weeks open label, up -titration amantadine lead-in phase, follow by a 6 weeks add-on citalopram phase; performed in Parkinson Disease patients suffering from severe bradykinesia and motor fluctuations—dyskinesias—induced by L-Dopa therapy.
# Amantadine Hydrochloride: 50 mg arnantadine hydrochloride is administered as a b.i.d. regimen during 1 week. Up titration to 100 mg amantadine hydrochloride administered as a b.i.d. regimen during the second week. Up titration to 150 mg amantadine hydrochloride administered as a b.i.d. regimen during the third week. […]
# The total score for UPDRS subscale IV is employed to evaluate the severity and characteristics of L-Dopa induced dyskinesias. The total score is calculated as the sum of all scores assigned in the dyskinesia items: 32, 33, 34 and 35; the clinical fluctuations items (calculated as the sum of all scores assigned in items 36, 38 and 39). Items 32, 33, 34 and 35 are recorded according to historical information and item 33 is also modified by office examination. […]
# The total score of the subscale III of the UPDRS is employed to examine parkinsonian symptoms. Motor functionality is assessed as the total motor score calculated as the sum of all scores assigned in items 18, 19, 20, 21, 22, 23, 24, 25, 26, 27, 28, 29, 30 and 31. […]
# [3] = test system: HD patients; details: cited from earlier work
# [4] = test system: parkinsonian patients; details: in vivo; cited from earlier work
# [5] = test system: dyskinesia; details: normal therapeutic (anti-anxiolytic) levels; cited from earlier work
# [6] = test system: Parkinson's disease; details: in vivo; cited from earlier work
# [7] = test system: patients suffering from different types of tremors; details: human, in vivo; cited from earlier work
smiles,measurement,setting,value
CN(C)CCCC1(c2ccc(F)cc2)OCc2cc(C#N)ccc21 (stereo not shown) [citalopram],motor symptoms,[1],worsened their motor symptoms
NC12CC3CC(CC(C3)C1)C2 [amantadine],UPDRS III scores (motor performance),[2],improvement in motor performance
same,"UPDRS IV scores (severity and characteristics of L-Dopa induced dyskinesias, motor fluctuations)",[2],improvement in motor fluctuations
same,neuropsychologic and psychiatric assessments,[3]; after 6 and 12 months of therapy,No changes
same,dyskinesias,"[3]; eight HD patients, oral amantadine 100 mg tid, unblinded, 1-year period, p<0.01",significant reduction of dyskinesias
"CC(C)(C)N1CCC(c2ccccc2)(c2ccccc2)CC1 [Budipine, 1-Tert-butyl-4,4-diphenylpiperidine]","akinesia, rigidity, and tremor",[4],"significantly reduces akinesia, rigidity, and tremor"
same,time to optimal effects after starting treatment,[4],4-6 weeks
O=C1CC2(CCCC2)CC(=O)N1CCCCN1CCN(c2ncccn2)CC1 [buspirone],effect on dyskinesia,[5],no different than placebo
same,treatment of Parkinson's disease,[6],ineffective
O=c1n(CCCN2CCN(c3cccc(Cl)c3)CC2)nc2ccccn12 [trazodone],tremors,[7],significantly reduced tremors
